In patent EP4678635A1, “CRYSTAL FORM OF NIROGACESTAT DIHYDROBROMATE, AND PREPARATION METHOD THEREFOR AND USE THEREOF” (Crystal Pharmaceutical (Suzhou) Co., Ltd., priority 2023, dated 2024):
In brackets after ≈: the same amount, converted by molar mass. Read-outs that look alike come from different tables or passages of the source.

Key:
Format in all cases: physicochemical
Bulk and tapped density = conditions: for Bulk density: about 500 mg in 5-mL graduated cylinder, before tapping; for Tapped density: tapped 1250 times
Method: About 500 mg of sample was gently loaded into a 5-mL graduated cylinder to measure the bulk volume before tapping. The sample was then tapped 1250 times on a ZS-2E tap density tester to achieve a tapped state, and the tapped volume was recorded. The bulk density ρ0 and tapped density ρf were calculated accordingly.

[1] = Kinetic solubility in FaSSIF and FeSSIF
Method: Table 2 [table] When solubility test is used to predict the in vivo performance of a drug, it is critical to simulate in vivo conditions as closely as possible. For oral drugs, FaSSIF and FeSSIF can be used to simulate the conditions in vivo and predict the effect of eating. Solubilities in these media are closer to those in vivo. Appropriate amounts of Form CSVI were suspended in FaSSIF and FeSSIF at 37 °C. After equilibration for 0.5 h, the suspensions were filtered and the concentration (mg/mL) of Compound I in each filtrate was measured by HPLC. […]

[2] = Compressibility (tensile strength of tablets, manual tablet press); conditions: about 60 mg, Φ6mm round tooling, pressure of 3 kN, 24 h at RT; T=2H/πDL
Method: (§1) Tablets were prepared by an ENERPAC manual tablet press. About 60 mg of Form CSV and the prior art Form A were separately added to Φ6mm round tooling punches and compressed into tablets under a pressure of 3 kN. The tablets were left at RT for 24 h to allow complete elastic recovery. The diameter (D) and thickness (L) were measured using a vernier caliper, and their radial crushing strength (hardness, H) was determined using a tablet hardness tester. The tensile strength (T) of the powders was calculated with the following formula: T=2H/πDL. […] Under a certain force, higher tensile strength indicates better compressibility.
as §1, with “CSVI” for “CSV”

[3] = Stability under mechanical force: ball milling, XRPD; conditions: ball milling at 500 rpm for 5 minutes
Method: An appropriate amount of Form CSV was subjected to ball milling at 500 rpm for 5 minutes using a ball mill. […]
An appropriate amount of Form CSVI was subjected to ball milling at 500 rpm for 5 minutes using a ball mill. […]

[4] = Stability under mechanical force: tableting under different pressures, XRPD; conditions: Φ6mm round tooling punch
Method: An appropriate amount of Form CSV was compressed into tablets under different pressures with a Φ6mm round tooling punch. XRPD tests were conducted before and after compression. The test results are listed in Table 6, and the XRPD overlay is depicted in Figure 5.
An appropriate amount of Form CSVI was compressed into tablets under different pressures with a Φ6mm round tooling punch. XRPD tests were conducted before and after compression. The test results are listed in Table 10, and the XRPD overlay is depicted in Figure 12.

[5] = Storage stability (crystalline form by XRPD, purity by HPLC); conditions: for Purity (%): HPLC, initial purity 99.51; for Crystalline form / remains stable for at least / Solid form: sealed container; for Crystalline form / Solid form: XRPD; for Crystalline form: initial Form CSV; for Solid form: initial Form CSVI
Method: (§2) An appropriate amount of Form CSV was packaged in a sealed container and then stored under the conditions of 25 °C/60%RH, 40 °C/75%RH and 60 °C/75%RH, respectively. Crystalline form and purity were analyzed by XRPD and HPLC. The results are listed in Table 5, and the XRPD pattern overlay is depicted in Figure 4. […] Meanwhile, Form CSV remains stable for at least 2 months under 60 °C/75%RH condition, indicating Form CSV has good stability under stress condition as well.
as §2, with “CSVI” for “CSV”, “was” for “and purity were”, “XRPD.” for “XRPD and HPLC.”, “9,” for “5,”, “11.” for “4.”

Row | Structure (SMILES) | average tensile strength [2] | crystalline form before and after ball milling [3] | After tableting (crystalline form) ([4]; Pressure 5 kN) | After tableting (crystalline form) ([4]; Pressure 10 kN) | After tableting (crystalline form) ([4]; Pressure 20 kN) | remains stable for at least ([5]; 25 °C/60%RH) | remains stable for at least ([5]; 40 °C/75%RH) | remains stable for at least ([5]; 60 °C/75%RH) | further results
1 | CCC[C@H](N[C@H]1CCc2cc(F)cc(F)c2C1)C(=O)Nc1cn(C(C)(C)CNCC(C)(C)C)cn1 [Form A, (S)-2-(((S)-6,8-difluoro-1,2,3,4-tetrahydronaphthalen-2-yl)amino)-N-(1-(2-methyl-1-(neopentylamino)propan-2-yl)-1H-imidazol-4-yl) pentanamide, reference compound] | 0.37 MPa | – | – | – | – | – | – | – | Bulk density (Bulk and tapped density; listed as The prior art Form A): 0.251 g/mL; Tapped density (Bulk and tapped density; listed as The prior art Form A): 0.282 g/mL; solubility at 0.5 h ([1]; fassif, solubility (concentration of Compound I in filtrate)): 4.2 mg/mL (≈ 8.58 mM); solubility at 0.5 h ([1]; solubility (concentration of Compound I in filtrate)): 7.5 mg/mL (≈ 15.3 mM)
2 | CCC[C@H](N[C@H]1CCc2cc(F)cc(F)c2C1)C(=O)Nc1cn(C(C)(C)CNCC(C)(C)C)cn1 [Form CSV, (S)-2-(((S)-6,8-difluoro-1,2,3,4-tetrahydronaphthalen-2-yl)amino)-N-(1-(2-methyl-1-(neopentylamino)propan-2-yl)-1H-imidazol-4-yl) pentanamide] | 0.55 MPa | remained unchanged | Form CSV | Form CSV | Form CSV | at least 6 months | at least 6 months | at least 2 months | Bulk density (Bulk and tapped density): 0.422 g/mL; Tapped density (Bulk and tapped density): 0.506 g/mL; Purity (%) ([5]; 25 °C/60%RH, 6 months): 99.52%; Crystalline form ([5]; 25 °C/60%RH, 6 months): Form CSV; Purity (%) ([5]; 40 °C/75%RH, 6 months): 99.50%; Crystalline form ([5]; 40 °C/75%RH, 6 months): Form CSV; Purity (%) ([5]; 60 °C/75%RH, 2 months): 99.54%; Crystalline form ([5]; 60 °C/75%RH, 2 months): Form CSV
3 | CCC[C@H](N[C@H]1CCc2cc(F)cc(F)c2C1)C(=O)Nc1cn(C(C)(C)CNCC(C)(C)C)cn1 [Form CSVI, (S)-2-(((S)-6,8-difluoro-1,2,3,4-tetrahydronaphthalen-2-yl)amino)-N-(1-(2-methyl-1-(neopentylamino)propan-2-yl)-1H-imidazol-4-yl) pentanamide] | 0.907 MPa | remained unchanged | Form CSVI | Form CSVI | Form CSVI | at least 8 months | at least 8 months | at least 2 months | solubility at 0.5 h ([1]; FeSSIF, 37 °C, equilibration for 0.5 h, HPLC, read-out: solubility (concentration of Compound I in filtrate)): 10.1 mg/mL (≈ 20.6 mM); solubility at 0.5 h ([1]; fassif, 37 °C, equilibration for 0.5 h, HPLC, read-out: solubility (concentration of Compound I in filtrate)): 16.1 mg/mL (≈ 32.9 mM); Solid form ([5]; 25 °C/60%RH, 8 months): Form CSVI; Solid form ([5]; 40 °C/75%RH, 8 months): Form CSVI; Solid form ([5]; 60 °C/75%RH, 2 months): Form CSVI
